Test results taken from publication PMC3639963, “A New Class of Small Molecule Inhibitor of BMP Signaling” (PLoS ONE, 2013).
Where “and” joins values, the source holds several entries; their conditions need not be identical. Identical values can stand only once.

Experiments:
Test in all cases: Nanosyn kinase profiling
Assay type in all cases: biochemical
ERBB4 = molecular target: T1, ERBB4 (Homo sapiens, UniProt Q15303); conditions: read-out: Percentage inhibition; for inhibition at 0.1 µM: 0.1 µM inhibitor; for inhibition at 1 µM: 1 µM inhibitor
T1 construct: purchased Nanosyn (enzymatic panel); SGC in-house recombinant human kinases (DSF panel); Invitrogen (ALK1-6)
T1 sequence (Q15303 26-1308): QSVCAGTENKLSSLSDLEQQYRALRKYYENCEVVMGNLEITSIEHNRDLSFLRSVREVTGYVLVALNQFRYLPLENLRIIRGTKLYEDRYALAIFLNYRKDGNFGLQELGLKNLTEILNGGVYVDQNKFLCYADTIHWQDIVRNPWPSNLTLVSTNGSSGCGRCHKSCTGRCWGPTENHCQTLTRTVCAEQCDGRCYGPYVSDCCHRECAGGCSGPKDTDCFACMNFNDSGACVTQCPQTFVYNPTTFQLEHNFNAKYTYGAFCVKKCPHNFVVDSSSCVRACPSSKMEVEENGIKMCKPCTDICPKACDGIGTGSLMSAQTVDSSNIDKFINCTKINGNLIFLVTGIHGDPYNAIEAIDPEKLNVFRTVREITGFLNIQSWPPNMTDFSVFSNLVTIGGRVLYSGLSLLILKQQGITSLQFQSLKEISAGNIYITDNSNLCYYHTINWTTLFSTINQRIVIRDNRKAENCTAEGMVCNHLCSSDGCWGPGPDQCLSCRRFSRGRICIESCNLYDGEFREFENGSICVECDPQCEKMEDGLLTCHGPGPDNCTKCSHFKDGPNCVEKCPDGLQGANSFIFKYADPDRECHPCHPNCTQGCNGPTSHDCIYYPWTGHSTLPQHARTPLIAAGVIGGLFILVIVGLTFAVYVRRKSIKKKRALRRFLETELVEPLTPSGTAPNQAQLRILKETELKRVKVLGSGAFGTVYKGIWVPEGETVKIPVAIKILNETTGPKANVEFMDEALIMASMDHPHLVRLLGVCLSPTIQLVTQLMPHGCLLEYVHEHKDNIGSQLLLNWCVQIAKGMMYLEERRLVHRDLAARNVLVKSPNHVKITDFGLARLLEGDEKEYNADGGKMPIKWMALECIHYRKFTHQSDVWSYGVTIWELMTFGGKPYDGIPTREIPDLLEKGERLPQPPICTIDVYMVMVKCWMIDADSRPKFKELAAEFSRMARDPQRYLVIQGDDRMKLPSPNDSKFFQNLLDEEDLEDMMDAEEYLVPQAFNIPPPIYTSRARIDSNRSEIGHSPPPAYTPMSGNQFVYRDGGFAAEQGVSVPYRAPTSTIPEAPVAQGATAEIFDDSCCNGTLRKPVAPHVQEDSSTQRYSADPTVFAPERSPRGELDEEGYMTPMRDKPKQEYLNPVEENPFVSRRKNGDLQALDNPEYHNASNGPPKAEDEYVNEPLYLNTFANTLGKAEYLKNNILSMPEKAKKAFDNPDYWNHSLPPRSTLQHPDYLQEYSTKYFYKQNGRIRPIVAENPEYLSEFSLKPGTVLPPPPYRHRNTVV
Protocol: (§1) Percentage inhibition was determined for each kinase at both 0.1 µM and 1 µM inhibitor concentration (supplemental Table S2). […]. […]. When visualized on a kinase phylogenetic tree, these were primarily clustered within the receptor tyrosine kinases (TKs) as well as the calmodulin-dependent kinases (CAMKs) (Figure 2C).
(§2) Inhibitor selectivity profiling against 200 human kinases at 0.1 and 1 µM inhibitor concentration was performed by Nanosyn (www.nanosyn.com).

KDR = molecular target: T2, KDR (Homo sapiens, UniProt P35968); conditions: read-out: Percentage inhibition; for inhibition at 0.1 µM: 0.1 µM inhibitor; for inhibition at 1 µM: 1 µM inhibitor
T2 construct: purchased Nanosyn (enzymatic panel); SGC in-house recombinant human kinases (DSF panel); Invitrogen (ALK1-6)
T2 sequence (P35968 20-1356): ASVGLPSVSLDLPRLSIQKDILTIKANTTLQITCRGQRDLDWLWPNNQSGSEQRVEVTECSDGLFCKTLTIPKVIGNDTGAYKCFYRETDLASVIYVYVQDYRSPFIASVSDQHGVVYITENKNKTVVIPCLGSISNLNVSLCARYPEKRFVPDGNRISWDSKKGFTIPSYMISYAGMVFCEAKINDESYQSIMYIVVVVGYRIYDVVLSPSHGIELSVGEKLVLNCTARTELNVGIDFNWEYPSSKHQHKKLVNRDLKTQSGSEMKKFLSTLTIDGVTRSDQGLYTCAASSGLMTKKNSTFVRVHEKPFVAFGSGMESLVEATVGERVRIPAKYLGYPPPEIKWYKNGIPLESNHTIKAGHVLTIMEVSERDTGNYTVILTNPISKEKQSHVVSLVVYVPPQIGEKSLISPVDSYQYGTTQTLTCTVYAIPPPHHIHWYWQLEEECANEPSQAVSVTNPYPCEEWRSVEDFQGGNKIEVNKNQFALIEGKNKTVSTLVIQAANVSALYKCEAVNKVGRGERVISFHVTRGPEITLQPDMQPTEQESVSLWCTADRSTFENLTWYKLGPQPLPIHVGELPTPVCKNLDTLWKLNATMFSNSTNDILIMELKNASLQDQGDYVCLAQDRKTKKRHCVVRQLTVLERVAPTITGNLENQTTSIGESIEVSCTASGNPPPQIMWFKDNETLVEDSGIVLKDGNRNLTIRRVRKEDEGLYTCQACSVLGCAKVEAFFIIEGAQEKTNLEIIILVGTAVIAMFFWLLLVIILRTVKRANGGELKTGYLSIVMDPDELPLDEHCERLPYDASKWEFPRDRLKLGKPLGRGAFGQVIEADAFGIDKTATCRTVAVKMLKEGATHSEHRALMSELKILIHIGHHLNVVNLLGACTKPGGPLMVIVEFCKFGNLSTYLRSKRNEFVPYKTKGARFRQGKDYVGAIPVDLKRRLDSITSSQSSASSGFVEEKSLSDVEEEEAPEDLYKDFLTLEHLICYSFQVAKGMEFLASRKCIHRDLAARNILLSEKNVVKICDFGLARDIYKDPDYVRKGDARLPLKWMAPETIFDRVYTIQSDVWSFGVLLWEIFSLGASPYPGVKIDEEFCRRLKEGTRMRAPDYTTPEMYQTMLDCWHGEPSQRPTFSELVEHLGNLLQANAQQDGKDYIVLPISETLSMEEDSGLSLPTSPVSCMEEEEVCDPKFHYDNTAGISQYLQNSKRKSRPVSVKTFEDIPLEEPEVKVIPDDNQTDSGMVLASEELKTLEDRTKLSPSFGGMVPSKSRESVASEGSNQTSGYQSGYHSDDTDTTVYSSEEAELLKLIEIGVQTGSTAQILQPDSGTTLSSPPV
Protocol: as §1, §2

CK1γ3 = molecular target: T3, CK1γ3 (Homo sapiens, UniProt Q9Y6M4); conditions: read-out: Percentage inhibition; for inhibition at 0.1 µM: 0.1 µM inhibitor; for inhibition at 1 µM: 1 µM inhibitor
T3 construct: purchased Nanosyn (enzymatic panel); SGC in-house recombinant human kinases (DSF panel); Invitrogen (ALK1-6)
T3 sequence (Q9Y6M4 whole entry): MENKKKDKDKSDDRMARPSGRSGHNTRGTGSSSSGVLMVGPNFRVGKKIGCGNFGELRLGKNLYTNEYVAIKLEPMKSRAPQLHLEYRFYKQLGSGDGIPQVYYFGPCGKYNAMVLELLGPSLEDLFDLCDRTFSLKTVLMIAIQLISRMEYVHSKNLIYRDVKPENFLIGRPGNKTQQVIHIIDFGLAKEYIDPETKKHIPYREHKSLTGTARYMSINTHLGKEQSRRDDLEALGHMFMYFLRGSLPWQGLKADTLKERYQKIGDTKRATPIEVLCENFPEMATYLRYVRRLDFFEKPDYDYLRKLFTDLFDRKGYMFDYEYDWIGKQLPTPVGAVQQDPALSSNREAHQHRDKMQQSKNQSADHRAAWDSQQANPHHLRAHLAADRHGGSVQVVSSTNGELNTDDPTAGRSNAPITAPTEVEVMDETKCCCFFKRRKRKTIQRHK
Protocol: as §1, §2

P38α = molecular target: T4, P38α (Homo sapiens, UniProt Q16539); conditions: read-out: Percentage inhibition; for inhibition at 0.1 µM: 0.1 µM inhibitor; for inhibition at 1 µM: 1 µM inhibitor
T4 construct: purchased Nanosyn (enzymatic panel); SGC in-house recombinant human kinases (DSF panel); Invitrogen (ALK1-6)
T4 sequence (Q16539 whole entry): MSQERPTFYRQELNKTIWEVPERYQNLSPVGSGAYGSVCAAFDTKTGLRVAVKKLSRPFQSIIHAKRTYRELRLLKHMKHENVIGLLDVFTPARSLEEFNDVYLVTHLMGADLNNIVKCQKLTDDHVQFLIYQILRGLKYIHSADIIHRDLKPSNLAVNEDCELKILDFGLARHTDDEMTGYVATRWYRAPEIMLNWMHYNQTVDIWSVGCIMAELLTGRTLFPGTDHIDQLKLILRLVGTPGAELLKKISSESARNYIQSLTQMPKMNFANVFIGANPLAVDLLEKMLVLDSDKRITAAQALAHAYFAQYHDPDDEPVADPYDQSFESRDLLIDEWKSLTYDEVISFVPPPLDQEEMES
Protocol: as §1, §2

CHEK2 = molecular target: T5, CHEK2 (Homo sapiens, UniProt O96017); conditions: read-out: Percentage inhibition; for inhibition at 0.1 µM: 0.1 µM inhibitor; for inhibition at 1 µM: 1 µM inhibitor
T5 construct: purchased Nanosyn (enzymatic panel); SGC in-house recombinant human kinases (DSF panel); Invitrogen (ALK1-6)
T5 sequence (O96017 whole entry): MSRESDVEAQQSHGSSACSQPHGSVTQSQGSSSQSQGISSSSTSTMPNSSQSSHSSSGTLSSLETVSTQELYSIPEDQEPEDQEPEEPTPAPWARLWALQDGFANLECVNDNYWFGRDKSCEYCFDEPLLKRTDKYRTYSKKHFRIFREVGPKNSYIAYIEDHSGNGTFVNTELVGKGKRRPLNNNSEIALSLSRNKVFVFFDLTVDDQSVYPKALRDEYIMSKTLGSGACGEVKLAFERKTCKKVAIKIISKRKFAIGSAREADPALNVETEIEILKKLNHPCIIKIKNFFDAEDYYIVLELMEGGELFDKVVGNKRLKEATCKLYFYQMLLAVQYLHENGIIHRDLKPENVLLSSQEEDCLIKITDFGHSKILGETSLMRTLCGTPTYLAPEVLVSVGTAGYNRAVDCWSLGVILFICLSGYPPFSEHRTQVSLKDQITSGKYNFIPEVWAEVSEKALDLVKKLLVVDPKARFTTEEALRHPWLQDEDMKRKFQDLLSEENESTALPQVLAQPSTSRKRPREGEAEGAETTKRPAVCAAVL
Protocol: as §1, §2

TNK1 = molecular target: T6, TNK1 (Homo sapiens, UniProt Q13470); conditions: read-out: Percentage inhibition; for inhibition at 0.1 µM: 0.1 µM inhibitor; for inhibition at 1 µM: 1 µM inhibitor
T6 construct: purchased Nanosyn (enzymatic panel); SGC in-house recombinant human kinases (DSF panel); Invitrogen (ALK1-6)
T6 sequence (Q13470 1-666): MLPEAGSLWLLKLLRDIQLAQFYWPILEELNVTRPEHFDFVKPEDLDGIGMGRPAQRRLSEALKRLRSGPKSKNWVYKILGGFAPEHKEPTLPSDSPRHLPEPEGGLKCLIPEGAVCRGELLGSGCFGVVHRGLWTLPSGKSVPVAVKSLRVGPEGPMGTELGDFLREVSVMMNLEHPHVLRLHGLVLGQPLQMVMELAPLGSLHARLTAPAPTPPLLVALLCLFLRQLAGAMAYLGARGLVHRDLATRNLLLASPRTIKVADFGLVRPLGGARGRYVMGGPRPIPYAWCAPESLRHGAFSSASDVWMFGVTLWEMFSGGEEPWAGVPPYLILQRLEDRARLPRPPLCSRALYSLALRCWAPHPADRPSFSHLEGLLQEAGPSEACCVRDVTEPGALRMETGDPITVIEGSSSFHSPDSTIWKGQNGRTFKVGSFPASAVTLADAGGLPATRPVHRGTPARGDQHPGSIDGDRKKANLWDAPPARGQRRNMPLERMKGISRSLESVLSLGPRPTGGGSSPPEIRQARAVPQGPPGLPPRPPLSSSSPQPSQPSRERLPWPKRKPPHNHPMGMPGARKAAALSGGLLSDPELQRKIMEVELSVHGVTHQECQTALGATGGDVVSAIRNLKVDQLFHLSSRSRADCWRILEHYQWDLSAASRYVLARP
Protocol: as §1, §2

EPHA3 = molecular target: T7, EPHA3 (Homo sapiens, UniProt P29320); conditions: read-out: Percentage inhibition; for inhibition at 0.1 µM: 0.1 µM inhibitor; for inhibition at 1 µM: 1 µM inhibitor
T7 construct: purchased Nanosyn (enzymatic panel); SGC in-house recombinant human kinases (DSF panel); Invitrogen (ALK1-6)
T7 sequence (P29320 21-983): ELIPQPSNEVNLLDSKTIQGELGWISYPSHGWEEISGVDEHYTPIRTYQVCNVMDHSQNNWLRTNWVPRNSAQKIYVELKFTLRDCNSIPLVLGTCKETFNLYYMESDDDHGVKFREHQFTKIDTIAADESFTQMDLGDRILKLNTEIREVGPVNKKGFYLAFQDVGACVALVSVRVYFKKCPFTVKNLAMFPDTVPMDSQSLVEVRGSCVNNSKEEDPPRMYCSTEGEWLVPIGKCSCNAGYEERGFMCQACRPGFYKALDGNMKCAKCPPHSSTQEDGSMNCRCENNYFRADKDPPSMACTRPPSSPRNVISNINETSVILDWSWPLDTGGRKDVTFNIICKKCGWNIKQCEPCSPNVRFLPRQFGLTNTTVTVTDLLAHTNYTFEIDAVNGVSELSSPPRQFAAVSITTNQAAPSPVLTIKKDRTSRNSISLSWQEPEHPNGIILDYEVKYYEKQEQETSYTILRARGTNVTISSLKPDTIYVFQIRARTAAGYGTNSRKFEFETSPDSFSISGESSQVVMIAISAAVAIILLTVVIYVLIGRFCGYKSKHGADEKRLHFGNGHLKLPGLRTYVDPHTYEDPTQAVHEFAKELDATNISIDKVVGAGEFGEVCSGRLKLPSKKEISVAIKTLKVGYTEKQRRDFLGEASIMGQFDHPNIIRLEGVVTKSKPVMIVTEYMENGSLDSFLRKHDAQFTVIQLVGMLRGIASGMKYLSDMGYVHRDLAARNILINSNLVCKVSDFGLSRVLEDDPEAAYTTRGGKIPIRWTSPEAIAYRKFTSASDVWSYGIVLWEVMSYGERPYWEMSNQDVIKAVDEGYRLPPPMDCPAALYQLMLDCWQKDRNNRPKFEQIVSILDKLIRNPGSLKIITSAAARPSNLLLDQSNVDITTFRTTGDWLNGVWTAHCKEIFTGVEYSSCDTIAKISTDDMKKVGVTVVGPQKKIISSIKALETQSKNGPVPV
Protocol: as §1, §2

MAPKAPK3 = molecular target: T8, MAPKAPK3 (Homo sapiens, UniProt Q16644); conditions: read-out: Percentage inhibition; for inhibition at 0.1 µM: 0.1 µM inhibitor; for inhibition at 1 µM: 1 µM inhibitor
T8 construct: purchased Nanosyn (enzymatic panel); SGC in-house recombinant human kinases (DSF panel); Invitrogen (ALK1-6)
T8 sequence (Q16644 whole entry): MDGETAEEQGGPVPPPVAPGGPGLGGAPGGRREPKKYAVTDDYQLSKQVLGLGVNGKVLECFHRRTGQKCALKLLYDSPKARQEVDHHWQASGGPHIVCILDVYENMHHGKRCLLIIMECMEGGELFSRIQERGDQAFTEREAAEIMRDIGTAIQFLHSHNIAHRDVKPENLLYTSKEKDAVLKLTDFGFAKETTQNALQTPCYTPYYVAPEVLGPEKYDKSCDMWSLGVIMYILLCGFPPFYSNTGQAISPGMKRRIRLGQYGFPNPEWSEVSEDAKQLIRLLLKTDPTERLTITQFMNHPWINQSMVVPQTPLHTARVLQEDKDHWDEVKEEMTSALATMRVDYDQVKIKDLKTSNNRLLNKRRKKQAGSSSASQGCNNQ
Protocol: as §1, §2

TRKA = molecular target: T9, TRKA (Homo sapiens, UniProt P04629); conditions: read-out: Percentage inhibition; for inhibition at 0.1 µM: 0.1 µM inhibitor; for inhibition at 1 µM: 1 µM inhibitor
T9 construct: purchased Nanosyn (enzymatic panel); SGC in-house recombinant human kinases (DSF panel); Invitrogen (ALK1-6)
Protocol: as §1, §2

ABL1 = molecular target: T10, ABL1 (Homo sapiens, UniProt P00519); conditions: for Percentage inhibition: 0.1 µM; for inhibition at 1 µM: 1 µM inhibitor
T10 construct: purchased Nanosyn (enzymatic panel); SGC in-house recombinant human kinases (DSF panel); Invitrogen (ALK1-6)
Protocol: as §1, §2

[1] = read-out: Percentage inhibition

Row | SMILES | inhibition at 0.1 µM (ERBB4) [%] | inhibition at 1 µM (ERBB4) [%] | inhibition at 0.1 µM (KDR) [%] | inhibition at 1 µM (KDR) [%] | inhibition at 0.1 µM (CK1γ3) [%] | inhibition at 1 µM (CK1γ3) [%] | inhibition at 0.1 µM (P38α) [%] | inhibition at 1 µM (P38α) [%] | inhibition at 0.1 µM (CHEK2) [%] | inhibition at 1 µM (CHEK2) [%] | inhibition at 0.1 µM (TNK1) [%] | inhibition at 1 µM (TNK1) [%] | inhibition at 0.1 µM (EPHA3) [%] | inhibition at 1 µM (EPHA3) [%] | inhibition at 0.1 µM (MAPKAPK3) [%] | inhibition at 1 µM (MAPKAPK3) [%] | inhibition at 0.1 µM (TRKA) [%] | inhibition at 1 µM (TRKA) [%] | Percentage inhibition (ABL1; 0.1 µM inhibitor) | inhibition at 1 µM (ABL1; [1]) [%] | other results
1 | COc1cc(-c2cc(-c3cccc(O)c3)cnc2N)cc(OC)c1OC [K02288, 3-[6-amino-5-(3,4,5-trimethoxy-phenyl)-pyridin-3-yl]-phenol] | -5 | 0.9 | 0.5 | 3.9 | 2.7 | 19 | -3 | 1.5 | -1 | 2.5 | 0.4 | 10 | -6 | 4.3 | -1 | -2 | 1.5 | 2.8 | 79% and > 50% | 89 | 
2 | c1ccc2c(-c3cnn4cc(-c5ccc(N6CCNCC6)cc5)cnc34)ccnc2c1 [LDN-193189] | 6.1 | 11 | 19 | 69 | 2.3 | 5.5 | 4.4 | 3.3 | 1.5 | 2 | 18 | 63 | 2.2 | 6.3 | 1.6 | 0.5 | 1.9 | 7.2 | > 50% | 84 | inhibition at 0.1 µM (ABL1; 0.1 µM inhibitor, read-out: Percentage inhibition): 62%
